Test [1] addresses T1, Mitogen-activated protein kinase kinase kinase 6 (Homo sapiens, UniProt O95382).
T1 sequence (O95382 whole entry): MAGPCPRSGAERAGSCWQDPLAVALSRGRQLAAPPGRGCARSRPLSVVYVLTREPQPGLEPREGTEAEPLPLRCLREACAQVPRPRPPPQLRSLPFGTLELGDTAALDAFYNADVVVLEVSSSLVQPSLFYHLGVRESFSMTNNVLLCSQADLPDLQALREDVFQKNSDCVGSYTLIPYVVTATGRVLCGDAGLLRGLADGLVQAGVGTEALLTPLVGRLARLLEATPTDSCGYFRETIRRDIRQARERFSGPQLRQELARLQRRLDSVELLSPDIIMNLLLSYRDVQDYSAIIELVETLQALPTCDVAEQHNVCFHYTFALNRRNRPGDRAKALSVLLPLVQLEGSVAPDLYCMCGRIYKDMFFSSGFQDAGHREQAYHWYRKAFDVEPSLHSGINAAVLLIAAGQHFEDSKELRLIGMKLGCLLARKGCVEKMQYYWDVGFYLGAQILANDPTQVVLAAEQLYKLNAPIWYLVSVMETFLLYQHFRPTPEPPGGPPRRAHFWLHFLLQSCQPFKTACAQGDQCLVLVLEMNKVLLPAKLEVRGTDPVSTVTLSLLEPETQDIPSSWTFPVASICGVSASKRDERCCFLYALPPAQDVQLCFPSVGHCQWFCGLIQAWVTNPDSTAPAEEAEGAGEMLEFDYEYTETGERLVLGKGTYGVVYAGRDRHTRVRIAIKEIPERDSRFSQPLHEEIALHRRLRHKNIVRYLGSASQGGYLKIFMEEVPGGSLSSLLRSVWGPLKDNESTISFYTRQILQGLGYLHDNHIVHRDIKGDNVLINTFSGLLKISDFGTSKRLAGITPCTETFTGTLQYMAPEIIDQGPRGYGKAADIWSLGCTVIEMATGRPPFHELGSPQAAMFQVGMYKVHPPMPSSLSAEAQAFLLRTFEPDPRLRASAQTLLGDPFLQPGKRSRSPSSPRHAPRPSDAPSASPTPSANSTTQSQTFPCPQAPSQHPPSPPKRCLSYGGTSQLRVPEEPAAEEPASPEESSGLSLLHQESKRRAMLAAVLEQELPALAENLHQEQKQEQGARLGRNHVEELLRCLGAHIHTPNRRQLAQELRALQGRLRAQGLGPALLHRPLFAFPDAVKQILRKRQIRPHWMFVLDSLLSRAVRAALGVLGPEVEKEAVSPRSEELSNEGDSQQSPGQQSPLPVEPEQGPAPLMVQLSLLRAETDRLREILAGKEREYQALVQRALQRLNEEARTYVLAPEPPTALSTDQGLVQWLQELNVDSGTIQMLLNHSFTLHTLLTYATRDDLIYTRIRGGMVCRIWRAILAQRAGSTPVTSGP

In test [2] the target is T2, Dual specificity mitogen-activated protein kinase kinase 5 (Homo sapiens, UniProt Q13163).
T2 sequence (Q13163 whole entry): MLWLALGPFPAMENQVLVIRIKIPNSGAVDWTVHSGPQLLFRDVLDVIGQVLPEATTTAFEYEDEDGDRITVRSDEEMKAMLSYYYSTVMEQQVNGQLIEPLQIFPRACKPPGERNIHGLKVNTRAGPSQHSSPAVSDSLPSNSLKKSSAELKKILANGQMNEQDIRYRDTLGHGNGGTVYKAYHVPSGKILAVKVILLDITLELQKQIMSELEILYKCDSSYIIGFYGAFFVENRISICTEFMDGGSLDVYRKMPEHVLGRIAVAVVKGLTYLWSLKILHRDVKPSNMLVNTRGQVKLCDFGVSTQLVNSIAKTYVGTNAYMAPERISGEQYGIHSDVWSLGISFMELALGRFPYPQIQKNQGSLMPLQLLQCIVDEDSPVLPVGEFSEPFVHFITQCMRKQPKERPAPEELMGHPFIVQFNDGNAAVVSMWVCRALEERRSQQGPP

For test [3], the target named is Tyrosine-protein kinase Yes (Homo sapiens, UniProt P07947).
Chain of Tyrosine-protein kinase Yes (P07947 whole entry): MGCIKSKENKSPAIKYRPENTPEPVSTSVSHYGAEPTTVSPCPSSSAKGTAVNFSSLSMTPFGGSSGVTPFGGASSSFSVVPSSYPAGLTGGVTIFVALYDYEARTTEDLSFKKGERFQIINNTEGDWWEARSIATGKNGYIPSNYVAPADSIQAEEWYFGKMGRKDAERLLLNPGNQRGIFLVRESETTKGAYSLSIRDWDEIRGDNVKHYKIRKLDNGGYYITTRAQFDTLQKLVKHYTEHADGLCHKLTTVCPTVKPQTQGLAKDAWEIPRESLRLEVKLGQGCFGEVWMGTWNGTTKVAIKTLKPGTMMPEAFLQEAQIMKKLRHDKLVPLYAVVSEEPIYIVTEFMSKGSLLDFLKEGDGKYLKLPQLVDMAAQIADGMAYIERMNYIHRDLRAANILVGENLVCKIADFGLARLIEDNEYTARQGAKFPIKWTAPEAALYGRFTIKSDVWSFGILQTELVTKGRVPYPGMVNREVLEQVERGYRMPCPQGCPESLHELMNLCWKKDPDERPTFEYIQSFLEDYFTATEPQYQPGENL
Test [4] has as its target Adenylate kinase 2, mitochondrial (Homo sapiens, UniProt P54819).
Test [5] concerns the target MAP/microtubule affinity-regulating kinase 3 (Homo sapiens, UniProt P27448).
The target of test [6] is Ribosomal protein S6 kinase alpha-3 (Homo sapiens, UniProt P51812).
Chain of Ribosomal protein S6 kinase alpha-3 (P51812 whole entry): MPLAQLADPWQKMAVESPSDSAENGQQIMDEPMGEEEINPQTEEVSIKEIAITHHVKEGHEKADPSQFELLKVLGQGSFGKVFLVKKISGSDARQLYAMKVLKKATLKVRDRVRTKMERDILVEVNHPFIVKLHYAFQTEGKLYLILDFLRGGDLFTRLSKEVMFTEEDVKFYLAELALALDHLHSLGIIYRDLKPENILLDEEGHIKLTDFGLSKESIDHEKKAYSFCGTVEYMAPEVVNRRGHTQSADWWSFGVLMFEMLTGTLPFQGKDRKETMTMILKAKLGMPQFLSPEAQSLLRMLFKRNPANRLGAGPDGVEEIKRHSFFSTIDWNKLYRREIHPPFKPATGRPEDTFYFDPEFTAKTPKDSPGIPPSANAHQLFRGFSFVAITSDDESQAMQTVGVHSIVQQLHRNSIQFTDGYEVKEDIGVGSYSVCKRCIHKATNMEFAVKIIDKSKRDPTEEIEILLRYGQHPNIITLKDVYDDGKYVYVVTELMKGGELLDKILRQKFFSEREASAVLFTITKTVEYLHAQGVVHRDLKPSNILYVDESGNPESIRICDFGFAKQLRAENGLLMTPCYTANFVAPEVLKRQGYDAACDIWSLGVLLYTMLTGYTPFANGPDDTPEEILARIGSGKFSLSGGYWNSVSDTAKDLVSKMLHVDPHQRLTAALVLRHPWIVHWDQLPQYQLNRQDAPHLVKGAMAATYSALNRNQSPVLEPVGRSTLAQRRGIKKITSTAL
Test [7] has as its target Cyclin-dependent kinase 6 (Homo sapiens, UniProt Q00534).
Test [8] concerns the target Epidermal growth factor receptor (Homo sapiens, UniProt P00533).
Test [9] addresses T3, MAP kinase-activated protein kinase 5 (Homo sapiens, UniProt Q8IW41).
T3 sequence (Q8IW41 whole entry): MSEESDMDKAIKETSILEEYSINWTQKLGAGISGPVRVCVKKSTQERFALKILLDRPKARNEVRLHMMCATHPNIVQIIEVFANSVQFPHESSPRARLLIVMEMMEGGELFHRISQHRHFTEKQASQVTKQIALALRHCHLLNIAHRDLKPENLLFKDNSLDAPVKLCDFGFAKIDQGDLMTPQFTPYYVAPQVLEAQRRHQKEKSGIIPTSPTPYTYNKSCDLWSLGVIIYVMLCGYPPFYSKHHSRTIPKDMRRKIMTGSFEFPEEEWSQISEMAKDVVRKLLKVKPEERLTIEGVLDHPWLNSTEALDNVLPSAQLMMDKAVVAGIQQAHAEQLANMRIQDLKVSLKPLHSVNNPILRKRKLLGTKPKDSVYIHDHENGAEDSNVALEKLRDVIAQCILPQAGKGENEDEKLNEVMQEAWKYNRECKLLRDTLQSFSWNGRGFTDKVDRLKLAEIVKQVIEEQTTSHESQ

In test [10] the target is T4, STE20-related kinase adapter protein alpha (Homo sapiens, UniProt Q7RTN6).
T4 sequence (Q7RTN6 whole entry): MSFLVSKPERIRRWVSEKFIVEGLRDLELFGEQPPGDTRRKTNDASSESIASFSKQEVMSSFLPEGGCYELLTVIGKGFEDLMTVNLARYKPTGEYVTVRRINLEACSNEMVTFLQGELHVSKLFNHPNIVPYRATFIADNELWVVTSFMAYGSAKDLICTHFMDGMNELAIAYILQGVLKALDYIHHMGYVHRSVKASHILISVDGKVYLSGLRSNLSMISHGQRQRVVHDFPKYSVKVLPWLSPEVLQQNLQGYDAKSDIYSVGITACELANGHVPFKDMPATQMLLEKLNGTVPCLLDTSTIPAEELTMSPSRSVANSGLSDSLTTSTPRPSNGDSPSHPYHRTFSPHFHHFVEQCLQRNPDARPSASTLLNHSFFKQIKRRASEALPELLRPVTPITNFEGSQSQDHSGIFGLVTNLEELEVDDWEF

Counter-ions that a name gives are not always drawn. The source made the active and inactive calls. Cut-off read from the data, not from the text of the source, for most assays here: actives have a measured Kd and inactives only a lower limit.
Note: in the data inactive means no Kd found up to 30 µM.

Chain of Epidermal growth factor receptor (P00533 whole entry): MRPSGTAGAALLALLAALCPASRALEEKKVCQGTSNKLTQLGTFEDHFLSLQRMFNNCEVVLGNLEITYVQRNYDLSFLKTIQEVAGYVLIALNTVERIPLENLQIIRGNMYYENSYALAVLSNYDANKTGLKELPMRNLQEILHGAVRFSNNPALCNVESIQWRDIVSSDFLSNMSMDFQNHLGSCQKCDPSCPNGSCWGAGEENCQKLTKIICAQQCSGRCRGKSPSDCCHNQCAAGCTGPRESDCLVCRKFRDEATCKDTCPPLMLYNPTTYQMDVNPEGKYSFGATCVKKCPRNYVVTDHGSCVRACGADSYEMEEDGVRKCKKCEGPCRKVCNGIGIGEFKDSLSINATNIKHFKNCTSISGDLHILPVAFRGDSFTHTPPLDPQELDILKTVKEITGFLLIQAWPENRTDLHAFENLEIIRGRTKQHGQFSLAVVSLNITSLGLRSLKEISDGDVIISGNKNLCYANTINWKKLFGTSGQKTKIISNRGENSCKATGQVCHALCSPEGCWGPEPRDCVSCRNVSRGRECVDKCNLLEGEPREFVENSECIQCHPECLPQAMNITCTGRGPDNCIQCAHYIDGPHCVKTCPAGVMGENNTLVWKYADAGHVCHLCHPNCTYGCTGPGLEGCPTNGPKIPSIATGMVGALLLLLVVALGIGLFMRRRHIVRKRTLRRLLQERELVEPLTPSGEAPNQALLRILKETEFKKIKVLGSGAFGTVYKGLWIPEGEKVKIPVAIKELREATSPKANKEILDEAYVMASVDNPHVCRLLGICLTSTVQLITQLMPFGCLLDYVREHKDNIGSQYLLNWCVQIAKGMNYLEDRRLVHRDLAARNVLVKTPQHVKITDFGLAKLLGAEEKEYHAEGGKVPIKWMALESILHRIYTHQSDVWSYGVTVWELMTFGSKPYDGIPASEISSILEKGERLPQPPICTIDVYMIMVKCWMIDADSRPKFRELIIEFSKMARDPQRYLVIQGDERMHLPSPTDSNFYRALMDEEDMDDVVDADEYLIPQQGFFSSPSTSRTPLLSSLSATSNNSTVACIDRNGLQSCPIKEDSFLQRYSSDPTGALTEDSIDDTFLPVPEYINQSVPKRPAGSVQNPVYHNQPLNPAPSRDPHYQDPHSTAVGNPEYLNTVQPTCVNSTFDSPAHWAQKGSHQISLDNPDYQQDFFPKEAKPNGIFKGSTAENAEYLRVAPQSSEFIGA
Chain of Cyclin-dependent kinase 6 (Q00534 whole entry): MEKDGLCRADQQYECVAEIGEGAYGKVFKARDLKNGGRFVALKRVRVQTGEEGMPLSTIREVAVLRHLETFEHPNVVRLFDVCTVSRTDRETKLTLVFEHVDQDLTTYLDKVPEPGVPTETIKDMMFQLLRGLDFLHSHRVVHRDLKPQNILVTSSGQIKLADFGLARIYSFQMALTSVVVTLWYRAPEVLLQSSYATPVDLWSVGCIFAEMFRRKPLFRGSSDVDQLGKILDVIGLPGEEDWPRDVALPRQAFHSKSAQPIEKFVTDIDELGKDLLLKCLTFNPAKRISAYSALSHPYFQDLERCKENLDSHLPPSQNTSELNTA
Chain of MAP/microtubule affinity-regulating kinase 3 (P27448 whole entry): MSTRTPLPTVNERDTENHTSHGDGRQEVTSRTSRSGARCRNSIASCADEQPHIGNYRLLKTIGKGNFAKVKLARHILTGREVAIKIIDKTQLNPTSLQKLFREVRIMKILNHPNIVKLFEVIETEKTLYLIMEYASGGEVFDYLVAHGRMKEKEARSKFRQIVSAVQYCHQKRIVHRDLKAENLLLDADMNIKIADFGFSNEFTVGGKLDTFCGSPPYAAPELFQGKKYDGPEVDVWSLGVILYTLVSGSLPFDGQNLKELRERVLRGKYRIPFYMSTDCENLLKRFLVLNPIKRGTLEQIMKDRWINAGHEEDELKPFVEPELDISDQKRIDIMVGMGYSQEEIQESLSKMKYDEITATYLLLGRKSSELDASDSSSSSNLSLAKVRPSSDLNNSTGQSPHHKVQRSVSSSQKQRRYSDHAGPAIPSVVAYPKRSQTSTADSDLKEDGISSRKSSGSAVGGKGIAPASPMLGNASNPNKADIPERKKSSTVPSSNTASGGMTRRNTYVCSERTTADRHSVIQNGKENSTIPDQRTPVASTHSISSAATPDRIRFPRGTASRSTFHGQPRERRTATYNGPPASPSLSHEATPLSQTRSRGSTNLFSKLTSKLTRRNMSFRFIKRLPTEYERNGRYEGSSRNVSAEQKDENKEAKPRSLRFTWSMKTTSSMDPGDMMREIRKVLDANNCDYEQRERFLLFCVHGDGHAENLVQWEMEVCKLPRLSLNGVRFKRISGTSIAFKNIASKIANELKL

Consider `C[C@H]1CNCCCN1S(=O)(=O)c1cccc2cncc(F)c12`, for which the Kd in test [1] is > 30 µM (inactive); in [2], > 30 µM (inactive); in test [3], > 30 µM (inactive); in test [4], > 30 µM (inactive); in [5] it was 58.2 µM (active); in test [6], > 30 µM (inactive). Also, the Kd in [7] and in [8] was > 30 µM (inactive) each time.
For `CC(=O)c1cnc2ccc(-c3cc(Cl)c(O)c(Cl)c3)nc2c1N[C@H]1CC[C@H](CN(C)C)CC1`, the Kd was 1.91 µM (active) in test [1]; 0.058 µM (active) in test [2]; > 30 µM (inactive) in test [3]; 0.272 µM (active) in [9]; > 30 µM (inactive) in test [4]; > 30 µM (inactive) in [5]. For the same molecule, the Kd in test [7], in test [8] and in [10] was > 30 µM (inactive) each time.
For the molecule `CCNC(=O)C#Cc1ccc2c(c1)NC(=O)/C2=C(\Nc1ccc(CN(C)C)cc1)c1ccccc1`, the Kd is > 30 µM (inactive) in test [1]; 0.177 µM (active) in test [2]; 0.094 µM (active) in [3]; > 30 µM (inactive) in test [4]; > 30 µM (inactive) in test [5]; 0.734 µM (active) in [6]. In addition, the values for the Kd in test [7], in test [8] and in test [10] were 2.97 µM (active), > 30 µM (inactive) and > 30 µM (inactive), respectively.
For the molecule `Cc1cc(Nc2ncc(Cl)c(Nc3ccccc3S(=O)(=O)C(C)C)n2)c(OC(C)C)cc1C1CCNCC1` [CERITINIB], the Kd in test [1], in [2], in [3], in test [9], in test [4] and in [5] was > 30 µM (inactive) throughout. Further, the Kd in test [6], in [7] and in test [10] was > 30 µM (inactive) in each case.
Turning to `COCC(=O)NC/C=C/c1ccc2ncnc(Nc3ccc(Oc4ccc(C)nc4)c(C)c3)c2c1` [CP-724714], the Kd in [1] is > 30 µM (inactive); in test [2], 1.26 µM (active); in test [3], > 30 µM (inactive); in test [9] it was > 30 µM (inactive); in test [4], > 30 µM (inactive); in test [5], > 30 µM (inactive). Also, the Kd in [6], in test [7] and in test [10] was > 30 µM (inactive) each time.
As to `C#Cc1cccc(Nc2ncnc3cc(OC)c(OCCCCCCC(=O)NO)cc23)c1` [CUDC-101], the Kd was > 30 µM (inactive) in test [1]; > 30 µM (inactive) in test [2]; > 30 µM (inactive) in test [3]; > 30 µM (inactive) in test [9]; 1.04 µM (active) in [4]; > 30 µM (inactive) in test [5]. Further, the Kd in test [6], in test [7] and in test [10] was > 30 µM (inactive) each time.
In the case of `CCS(=O)(=O)N1CCN(c2ccc(Nc3ncc(C(N)=O)c(NC4CC4)n3)cc2)CC1` [Cerdulatinib Hydrochloride], the Kd in test [1] is 0.473 µM (active); in test [2], 0.656 µM (active); in [3], > 30 µM (inactive); in test [9], > 30 µM (inactive); in test [4], > 30 µM (inactive); in test [6], 5.89 µM (active). Also, the Kd in [7], in test [8] and in [10] was > 30 µM (inactive) throughout.
Turning to `CNC(=O)c1nn(C)c2c1C(C)(C)Cc1cnc(Nc3ccc(N4CCN(C)CC4)cc3)nc1-2` [MILCICLIB], the Kd in test [1] was > 30 µM (inactive); in test [2], > 30 µM (inactive); in test [3] it was 3.79 µM (active); in test [9] it was > 30 µM (inactive); in test [4] it was > 30 µM (inactive); in test [5], 3.44 µM (active). Besides, the Kd in test [6] is > 30 µM (inactive); in [7], 1.72 µM (active); in [10], > 30 µM (inactive).
Take `CCOc1cc2ncc(C#N)c(Nc3ccc(F)c(Cl)c3)c2cc1NC(=O)/C=C/CN(C)C` [PELITINIB]: the Kd in test [1], in test [2], in test [3], in [9], in test [4] and in [5] was > 30 µM (inactive) each time. Also, the Kd in [6], in test [7] and in test [10] was > 30 µM (inactive) throughout.
For `CCS(=O)(=O)c1cccc(-c2cc(C(=O)NC3CCN(C)CC3)c(C)c3[nH]c4ncc(C)cc4c23)c1` [TAK-901], the Kd is > 30 µM (inactive) in [1]; 6.8 µM (active) in [2]; 0.022 µM (active) in test [3]; > 30 µM (inactive) in test [9]; > 30 µM (inactive) in [4]; 6 µM (active) in test [6]. The Kd in [7] is > 30 µM (inactive); in test [8], 1.47 µM (active); in [10], > 30 µM (inactive).
On to `Cn1ncc(Cl)c1-c1cc(C(=O)N[C@H](CN)Cc2ccc(F)c(F)c2)oc1Cl` [UPROSERTIB], for which the Kd in [1], in test [2], in test [3], in test [9], in [4] and in [6] was > 30 µM (inactive) throughout. Also, the Kd in [7], in test [8] and in test [10] was > 30 µM (inactive) in each case.

As a reminder, the Kd is the constant that tells how readily two partners part at equilibrium.

(Values after ChEMBL document CHEMBL3991601, “The target landscape of clinical kinase drugs” (Science, 2017).)
